According to patent publication US20200190101A1, “Composition Containing Novel Glutamic Acid Derivative And Block Copolymer, And Use Thereof” (Nippon Kayaku Kabushiki Kaisha, priority 2015, published 2020):

Legend:
[1] = test system: γ-glutamyl transpeptidase (GGT); assay: γ-Glutamyl transpeptidase (GGT) enzyme recognition test; type: biochemical; conditions: 2 mM PBS solution + 2 U/mL GGT solution, 37° C.; for Residual ratio of unchanged drug: HPLC
Method: To 0.150 mL of this doxorubicin-bonded glutamic acid derivative (prodrug) PBS solution, 0.150 mL of a 2 U/mL GGT solution obtained by dissolving GGT (0.22 mg, 8 U/mg) (Sigma-Aldrich Company) in PBS (0.880 mL) was added, and the mixture was allowed to react at 37° C.
The reaction liquid was analyzed by HPLC, and thus the residual ratio of the doxorubicin-bonded glutamic acid derivative (prodrug) and the production ratio of doxorubicin were determined.
To 0.100 mL of the doxorubicin-bonded glutamic acid derivative PBS solution, 0.100 mL of a 2 U/mL GGT solution obtained by dissolving GGT (0.38 mg, 8 U/mg) (Sigma-Aldrich Company) in PBS (1.520 mL) was added, and the mixture was allowed to react at 37° C. […]

[2] = Phosphate buffered physiological saline (PBS) solution stability test; type: physicochemical; conditions: PBS, 37° C., after 6.5 hours, HPLC
Method: 0.148 mL of the doxorubicin-bonded glutamic acid derivative PBS solution was dissolved in 0.148 mL of a PBS solution, and the solution was allowed to react at 37° C.
PBS (0.100 mL) was added to the EHC-bonded glutamic acid derivative solution (0.100 mL), and the mixture was allowed to react at 37° C. The reaction liquid was analyzed by HPLC, and thereby the residual ratio of the EHC-bonded glutamic acid derivative was determined.
PBS (0.117 mL) was added to the camptothecin-bonded glutamic acid derivative solution (0.117 mL), and the mixture was allowed to react at 37° C. The reaction liquid was analyzed by HPLC, and thereby the residual ratio of the glutamic acid derivative was determined.
The reaction liquid was analyzed by HPLC, and thereby the residual ratio of the EHC-bonded glutamic acid derivative was determined.

[3] = test system: OS-RC-2 cells having high GGT activity; assay: cells; type: cell-based, human; conditions: Homo sapiens; OS-RC-2 cells, 10 μM, 6 hours exposure then 3 days incubation; read-out: Cell proliferation inhibitory activity
Method: After the cells were incubated for 6 hours, the interior of the wells was washed, and after the cells were further incubated for 3 days, the cells were immobilized with methanol and stained using Methylene Blue dye. After staining, the dye was extracted with a 0.3% aqueous solution of hydrochloric acid was extracted, and the light absorbance at 660 nm was measured. For the light absorbance thus obtained, the cell proliferation suppressive activity was evaluated based on the reduction ratio for the light absorbance measured from cells to which the compound was not added.
By a similar operation, the cell proliferation suppressive activity was evaluated from the light absorbance, using doxorubicin that was not converted to a glutamic acid derivative. The results are shown in FIG. 1 (OS-RC-2 cells having high GGT activity) and FIG. 2 (SK-OV-3 cells having low GGT activity).
The cell proliferation inhibitory activity of the EHC-bonded glutamic acid derivative according to Synthesis Example 6 was evaluated using OS-RC-2 cells (RIKEN BioResource Center), which are known to have high GGT activity, and SK-OV-3 cells (American Type Culture Collection), which are known to have low GGT activity.
On a 96-well plate, OS-RC-2 cells having high GGT activity and SK-OV-3 cells having low GGT activity were each inoculated in an amount of 4,000 cells/well and were incubated for one day at 37° C. and 5% CO2, and then the EHC prodrug according to Synthesis Example 6 was added to the cells at a final concentration of 0.0001 to 1 μM. After the cells were incubated for 6 hours, the interior of the wells was washed, and the cells were further incubated for 3 days. After the incubation, the cells were immobilized with methanol and were stained using Methylene Blue dye. After staining, the dye was extracted with a 0.3% aqueous solution of hydrochloric acid, and the light absorbance at 660 nm was measured. The cell proliferation suppressive activity was evaluated based on the reduction ratio for the light absorbance thus obtained, with respect to the light absorbance measured from cells to which the compound was not added.
By a similar operation, EHC, which was an active ingredient of Synthesis Example 6, was used without modification, and the cell proliferation suppressive activity was evaluated from the light absorbance.

[4] = test system: OS-RC-2 cells having high GGT activity; type: cell-based, human; conditions: GGsTop 10 μM, compound 0.039 to 10 μM
Method: OS-RC-2 cells were inoculated by a method similar to that of Test Example 3. […] After the cells were incubated for 6 hours, the interior of the wells was washed, and after the cells were further incubated for 3 days, the cell proliferation suppressive activity was evaluated by a method similar to that of Test Example 3.
By a similar operation, the cell proliferation suppressive activity was evaluated using doxorubicin that was not glutamic acid-derivatized, from the light absorbance of the compound.
The GGT activity dependency of the cell proliferation inhibitory activity of the EHC-bonded glutamic acid derivative according to Synthesis Example 6 was evaluated using OS-RC-2 cells having high GGT activity.
OS-RC-2 cells were inoculated by a method similar to that of Test Example 10. After the cells were incubated for one day, GGsTop (Wako Pure Chemical Industries, Ltd.), which is a GGT inhibitor, was added to the cells at a final concentration of 10 μM, and the cells were incubated for one hour. Subsequently, the EHC-bonded glutamic acid derivative according to Synthesis Example 6 was added to the cells at a final concentration of 0.0001 to 1 μM. After the cells were incubated for 6 hours, the interior of the wells was washed, and after the cells were incubated for 3 days, the cell proliferation suppressive activity was evaluated by a method similar to that of Test Example 10.
By a similar operation, the cell proliferation suppressive activity was evaluated using EHC, which is the active ingredient of Synthesis Example 6, from the light absorbance of the compound.

[5] = test system: human renal cell cancer OS-RC-2 tumors; assay: Test on antitumor effect of Synthesis Example 1, OS-RC-2 tumors; type: in vivo, SCID mice; conditions: two times at an interval of 14 days
Method: By an operation similar to that of Test Example 12, human renal cell cancer OS-RC-2 tumors were subcutaneously transplanted into SCID mice, and tumor engraftment was confirmed.
(§1) After the administration, the major axis (L) and the minor axis (W) of a tumor were measured using calipers at an interval of 2 to 3 days, the tumor volume was calculated by the formula: (L×W^2)/2, and the tumor volume change rate from the administration initiation day was determined.

[6] = test system: human ovarian cancer SHIN-3 tumors; assay: Test on antitumor effect of Synthesis Example 1, SHIN-3 tumors; type: in vivo; conditions: three times at an interval of 7 days
Method: By an operation similar to that of Test Example 12, human ovarian cancer SHIN-3 tumors were subcutaneously transplanted into SCID mice, and tumor engraftment was confirmed.
as §1

[7] = Test on pharmacokinetics of Example 1 (blood plasma); type: in vivo, mice; conditions: mouse, iv, 10 mg/kg in terms of DXR i.v., read-out: AUC0-6 hr. Unchanged drug (DXR prodrug)
Method: At time points of 5 minutes, 1 hour, 3 hours, and 6 hours after administration, blood plasma was collected under ether anesthesia.

[8] = 20 mg/kg-administered group, i.v.

Compound: COc1cccc2c1C(=O)c1c(O)c3c(c(O)c1C2=O)C[C@@](O)(C(=O)CO)CC3OC1CC(NC(=O)OCc2ccc(NC(=O)CCC(N)C(=O)O)cc2)C(O)C(C)O1 (stereo partly drawn) [Synthesis Example 1, (((4-((S)-4-amino-4-carboxybutanamide)benzyl)oxy)carbonyl)doxorubicin]
- Doxorubicin production rate ([1]; reaction time 0 hr): 0%
- Residual ratio of unchanged drug ([1]; reaction time 0 hr): 100%
- Doxorubicin production rate ([1]; reaction time 1 hr): 49%
- Residual ratio of unchanged drug ([1]; reaction time 1 hr): 39%
- Doxorubicin production rate ([1]; reaction time 6.5 hr): 98%
- Residual ratio of unchanged drug ([1]; reaction time 6.5 hr): 1%
- Stability in PBS solution (release of doxorubicin) [2]: did not release doxorubicin in a PBS solution and was chemically stable
- inhibition at 10 µM [3]: 76%
- Effect of GGT inhibitor on cell proliferation suppressive activity [4]: completely inhibited the activity
- Antitumor effect (relative tumor volume) versus control drug [5, 8]: antitumor effect that was equal to the effect of the doxorubicin hydrochloride-administered group (5 mg/kg)
- Antitumor effect (relative tumor volume) ([5]; 5 or 20 mg/kg i.v.): dose-dependent antitumor effect
- Antitumor effect (relative tumor volume) versus control drug [6, 8]: antitumor effect that was equivalent to that of the control drug
- Antitumor effect (relative tumor volume) ([6]; 5 or 20 mg/kg i.v.): dose-dependent antitumor effect
- AUC(0-t) [7]: 6240 ng·h/mL
